Measured values: US11787847B2, “Method of identifying malodor modulating compounds” (FIRMENICH SA, priority 2017, dated 2023)

Tests used:
[1] = system: human receptors OR2L13, OR4C15, OR5AC2, OR8H3, OR11G2 or OR52N2; experiment: Ca2+ (Calcium 5 dye, FLIPR) dose-response assay in stable HEK293T cell lines (Example 3); assay type: cell-based; settings: increasing concentrations of DMTS, co-expressed Galpha15
Experimental: Functional dose-response experiments were performed to evaluate the level of DMTS activity of the modified cell lines expressing individual putative DMTS receptors. A cell line stably expressing a human receptor was generated in a HEK293T cell line for each of the following human receptors: OR2L13, OR4C15, OR5AC2, OR8H3, OR11G2 or OR52N2. The receptors were tagged with a FLAG®-Rho tag combination and stably co-expressed with the human G-protein alpha subunit Gals for the cell based assay. Co-expression of the human Gals activates the Gq transduction pathway that leads to an internal Ca^2+ increase upon binding to the appropriate ligand. Receptors were exposed to increasing concentrations of DMTS. Odorant-induced activity was detected by measuring the Ca^2+ increase in the cytosol using a calcium sensitive fluorescent dye (Molecular Devices, Calcium 5 dye, cat. R8186) and measuring the change in Relative Fluorescence Ratio (RFU) using a fluorometric imaging plate reader (Molecular Devices, FLIPR) following odorant exposure. […] A cell line lacking a receptor was used as a control for non-specific activity at high compound concentrations (‘No receptor’). The activity levels are reported by the potency of the DMTS induced-response for each receptor as a measure of the EC50 value.

[2] = system: cells that do not express the odorant receptors (HEK293T); experiment: Mock transfection control experiment (Example 5); assay type: cell-based
Experimental: (§1) Functional dose-response experiments were performed to evaluate the level of DMTS activity of the modified cell line expressing individual putative DMTS receptors. Using a cell-based assay, mouse receptor Olfr1193, Olfr1093, Olfr1097, Olrf166, Olfr169, Olfr738 and Olfr742, and human receptor OR4S2 and OR52N5 were tested in an HEK293T cell line wherein the endogenous RTP1 gene has been activated and the odorant receptor chaperone protein was expressed (described in WO2016/201153). The mouse receptor genes were tagged with a Lucy-FLAG®-Rho tag combination and the human receptors were tagged with a Rho-FLAG® tag combination resulting in a tag:receptor fusion protein for the cell based assay. Receptor genes were co-transfected with the canonical olfactory human G-protein alpha subunit Golf gene and were exposed to increasing concentrations of the malodor odorant. Co-expression of the human Golf activates the Gs transduction pathway that leads to an internal cAMP increase upon binding to the appropriate ligand. Odorant-induced activity was detected by measuring the cAMP increase in the cytosol using an Homogeneous Time Resolved Fluorescence (HTRF) based kit (CisBio, cAMP dynamic 2 kit, cat. 62AM4PEJ). […]

[3] = system: mouse receptor Olfr1193, Olfr1093, Olfr1097, Olrf166, Olfr169, Olfr738 and Olfr742, and human receptor OR4S2 and OR52N5; experiment: cAMP HTRF dose-response assay in HEK293T cells expressing odorant receptors (Example 2); assay type: cell-based; settings: increasing concentrations of odorant, receptors co-transfected with human Golf
[4] = system: mouse receptors Olfr1193, Olfr1093, Olfr1097, Olfr166, Olfr169, Olfr738, Olfr742 and human odorant receptor OR4S2; experiment: cAMP HTRF dose-response assay, DMTS/DMDS response profiles (Example 5); assay type: cell-based; settings: increasing concentration of compound; relative to butyric acid control
Experimental: as §1

[5] = target: T1, OR4S2 (Homo sapiens, UniProt Q8NH73); experiment: cell-based dose-response, cAMP increase by HTRF, HEK293T cells (endogenous RTP1 activated) co-transfected with human Golf, Rho-FLAG tagged receptor; parameters: the human receptors were tagged with a Rho-FLAG® tag combination; expressed in transfected cells
T1 sequence (Q8NH73 1-311): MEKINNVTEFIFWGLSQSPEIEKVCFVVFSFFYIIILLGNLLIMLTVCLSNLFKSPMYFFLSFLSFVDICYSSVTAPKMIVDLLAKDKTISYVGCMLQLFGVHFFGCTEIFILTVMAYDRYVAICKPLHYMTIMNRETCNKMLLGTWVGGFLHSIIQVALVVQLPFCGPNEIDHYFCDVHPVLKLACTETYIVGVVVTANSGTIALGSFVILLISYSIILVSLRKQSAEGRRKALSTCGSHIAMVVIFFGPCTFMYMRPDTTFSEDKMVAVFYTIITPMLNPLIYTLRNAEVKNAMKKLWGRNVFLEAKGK
Experimental: as §1

EC50 ([5]; FIG. 2, Example 2, SEQ ID NO: 42): 2000 nM
EC50 ([5]; FIG. 5, Example 5, SEQ ID NO: 42): 325 nM
Structure (SMILES): CSSSC [DMTS, dimethyl trisulfide]
receptor activity (Ca2+ increase in the cytosol, RFU) [1]: dose-dependent increase of receptor activity
activity upon exposure in mock transfected cells [2]: did not show activity
receptor activity (cAMP increase in the cytosol) [3]: dose-dependent increase of the receptor activity
receptor activity (cAMP increase) [4]: strong dose-dependent increase of the receptor activity
